From the supplement of paper PMC6045584
± gives the standard deviation of the averaged measurements.

Legend:
[1] = compound: CCn1c(C(=O)N(C2CC2)C2CC2)cc2c3c(ncn3C)c(Nc3cc(C)n(C)n3)nc21; assay: surviving fraction relative to DMSO-only wells; higher = less growth inhibition; settings: exposure time: 5 days
Method in brief: (§1)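 Tumour cell lines in log phase were plated in 384-well plates at 250–500 cells per well, then, after 24 hours, exposed continuously for five days to inhibitors at 0.5, 1, 5, 10, 50, 100, 500 and 1000 nM. Viability came from CellTiter-Glo luminescence, and surviving fraction is that signal normalised to the median of DMSO-only wells. Plates were read after 10 minutes at room temperature, and each line, screened three times, was kept only when replicate Pearson r was >0.7 and median Z' was >0.3.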

SOTRASTAURIN/AEB071 = compound: CN1CCN(c2nc(C3=C(c4c[nH]c5ccccc45)C(=O)NC3=O)c3ccccc3n2)CC1 [SOTRASTAURIN/AEB071]; assay: as above; settings: exposure time: 5 days
Method in brief: as §1

Row | Test System | surviving fraction ([1]; 0.5 nM) | surviving fraction ([1]; 1 nM) | surviving fraction ([1]; 5 nM) | surviving fraction ([1]; 10 nM) | surviving fraction ([1]; 50 nM) | surviving fraction ([1]; 100 nM) | surviving fraction ([1]; 500 nM) | surviving fraction ([1]; 1000 nM) | surviving fraction (SOTRASTAURIN/AEB071; 0.5 nM) | surviving fraction (SOTRASTAURIN/AEB071; 1 nM) | surviving fraction (SOTRASTAURIN/AEB071; 5 nM) | surviving fraction (SOTRASTAURIN/AEB071; 10 nM) | surviving fraction (SOTRASTAURIN/AEB071; 50 nM) | surviving fraction (SOTRASTAURIN/AEB071; 100 nM) | surviving fraction (SOTRASTAURIN/AEB071; 500 nM) | surviving fraction (SOTRASTAURIN/AEB071; 1000 nM)
1 | MDAMB134 BREAST | 1.16 ± 0.2 | 1.07 ± 0.086 | 1.15 ± 0.23 | 0.87 ± 0.014 | 1.04 ± 0.14 | 0.986 ± 0.14 | 0.907 ± 0.0014 | 0.976 ± 0.025 | 0.907 ± 0.16 | 0.994 ± 0.19 | 0.752 ± 0.12 | 0.9 ± 0.011 | 0.913 ± 0.26 | 0.663 ± 0.12 | 0.724 ± 0.1 | 0.74 ± 0.0085
2 | MDAMB157 BREAST | 0.935 ± 0.14 | 0.923 ± 0.06 | 0.93 ± 0.042 | 0.935 ± 0.071 | 0.836 ± 0.059 | 0.89 ± 0.068 | 0.837 ± 0.059 | 0.829 ± 0.053 | 0.923 ± 0.041 | 1 ± 0.048 | 1.07 ± 0.12 | 1.04 ± 0.091 | 1.01 ± 0.03 | 0.971 ± 0.13 | 0.919 ± 0.053 | 0.936 ± 0.031
3 | MDAMB231 BREAST | 0.965 ± 0.026 | 0.9749 ± 0.0034 | 0.975 ± 0.038 | 1.01 ± 0.011 | 1.01 ± 0.02 | 1.02 ± 0.014 | 0.926 ± 0.02 | 0.9 ± 0.025 | 0.955 ± 0.013 | 0.974 ± 0.037 | 1.01 ± 0.022 | 0.984 ± 0.031 | 1 ± 0.046 | 1.02 ± 0.0072 | 1.08 ± 0.033 | 1.05 ± 0.024
4 | MDAMB361 BREAST | 0.838 ± 0.094 | 0.87 ± 0.039 | 0.829 ± 0.083 | 0.812 ± 0.049 | 0.867 ± 0.055 | 0.8863 ± 0.0064 | 0.93 ± 0.083 | 0.842 ± 0.038 | 0.708 ± 0.053 | 0.758 ± 0.065 | 0.76 ± 0.12 | 0.776 ± 0.026 | 0.577 ± 0.099 | 0.561 ± 0.073 | 0.626 ± 0.099 | 0.591 ± 0.066
5 | MDAMB436 BREAST | 0.857 ± 0.024 | 0.807 ± 0.1 | 0.8337 ± 0.0019 | 0.877 ± 0.086 | 0.926 ± 0.029 | 0.946 ± 0.12 | 0.983 ± 0.13 | 0.941 ± 0.033 | 0.976 ± 0.12 | 0.96 ± 0.057 | 0.932 ± 0.14 | 0.992 ± 0.13 | 0.943 ± 0.043 | 0.816 ± 0.052 | 0.955 ± 0.073 | 0.952 ± 0.056
6 | MDAMB453 BREAST | 1.02 ± 0.033 | 0.992 ± 0.039 | 0.983 ± 0.02 | 0.986 ± 0.028 | 1.048 ± 0.0087 | 1.05 ± 0.033 | 1.04 ± 0.015 | 1.02 ± 0.028 | 0.996 ± 0.053 | 0.971 ± 0.081 | 1.01 ± 0.058 | 1 ± 0.076 | 0.915 ± 0.048 | 0.969 ± 0.1 | 0.951 ± 0.014 | 0.895 ± 0.05
7 | MDAMB468 BREAST | 0.984 ± 0.047 | 1.02 ± 0.059 | 1.05 ± 0.067 | 1.06 ± 0.09 | 1.05 ± 0.039 | 1.05 ± 0.074 | 0.985 ± 0.046 | 1.03 ± 0.095 | 0.911 ± 0.041 | 0.9443 ± 0.0091 | 1.02 ± 0.061 | 0.932 ± 0.019 | 0.964 ± 0.09 | 0.964 ± 0.077 | 0.947 ± 0.076 | 0.868 ± 0.053
8 | MFM223 BREAST | 1.07 ± 0.076 | 1.02 ± 0.056 | 1.03 ± 0.047 | 1.04 ± 0.053 | 1.1 ± 0.087 | 1.18 ± 0.075 | 1.17 ± 0.092 | 1.15 ± 0.089 | 1.12 ± 0.12 | 1.18 ± 0.094 | 1.07 ± 0.084 | 1.12 ± 0.076 | 0.849 ± 0.18 | 0.716 ± 0.081 | 0.719 ± 0.038 | 0.711 ± 0.035
9 | MG63 BONE | 0.9877 ± 0.0096 | 0.944 ± 0.016 | 0.992 ± 0.02 | 0.981 ± 0.031 | 1.01 ± 0.011 | 0.98 ± 0.015 | 0.928 ± 0.013 | 0.891 ± 0.021 | 1.02 ± 0.053 | 1.05 ± 0.047 | 1.06 ± 0.049 | 1.09 ± 0.027 | 1.07 ± 0.04 | 1.03 ± 0.065 | 1.02 ± 0.042 | 0.937 ± 0.029
10 | MHM BONE | 0.979 ± 0.035 | 0.964 ± 0.015 | 1 ± 0.022 | 0.995 ± 0.013 | 1 ± 0.019 | 0.999 ± 0.0044 | 0.976 ± 0.024 | 0.949 ± 0.022 | 1.04 ± 0.022 | 1.04 ± 0.05 | 1.07 ± 0.032 | 1.04 ± 0.046 | 1.11 ± 0.016 | 1.089 ± 0.01 | 1.078 ± 0.0072 | 1.05 ± 0.032
11 | NCIH441 LUNG | 0.92 ± 0.068 | 0.97 ± 0.033 | 1.03 ± 0.033 | 1.01 ± 0.13 | 0.952 ± 0.063 | 1.04 ± 0.037 | 1.06 ± 0.068 | 1.04 ± 0.017 | 1.03 ± 0.069 | 1.03 ± 0.043 | 1.16 ± 0.034 | 0.969 ± 0.072 | 1.02 ± 0.068 | 1 ± 0.022 | 1.07 ± 0.037 | 0.957 ± 0.083
12 | NOS1 BONE | 1.09 ± 0.11 | 1.13 ± 0.12 | 1.14 ± 0.035 | 1.04 ± 0.1 | 1.12 ± 0.15 | 1.13 ± 0.088 | 1.06 ± 0.2 | 0.884 ± 0.16 | 1.05 ± 0.087 | 1 ± 0.084 | 1.14 ± 0.12 | 1.08 ± 0.071 | 0.974 ± 0.095 | 1 ± 0.037 | 0.899 ± 0.035 | 1 ± 0.037
13 | NY BONE | 0.934 ± 0.0062 | 0.932 ± 0.038 | 1.002 ± 0.01 | 0.975 ± 0.026 | 1.02 ± 0.022 | 0.99 ± 0.013 | 0.922 ± 0.025 | 0.915 ± 0.018 | 0.99 ± 0.041 | 0.971 ± 0.023 | 1.08 ± 0.002 | 1.03 ± 0.048 | 1.11 ± 0.022 | 1.09 ± 0.043 | 1.07 ± 0.051 | 1.106 ± 0.0067
14 | OS25HAL BONE | 0.9497 ± 0.005 | 0.953 ± 0.018 | 0.945 ± 0.015 | 0.952 ± 0.022 | 1.04 ± 0.024 | 1.045 ± 0.0067 | 1.018 ± 0.0064 | 1.01 ± 0.011 | 1.02 ± 0.057 | 1.006 ± 0.0082 | 1.03 ± 0.039 | 1.03 ± 0.014 | 1.09 ± 0.018 | 1.04 ± 0.042 | 1.09 ± 0.025 | 1.03 ± 0.038
15 | OSHN BONE | 1.03 ± 0.026 | 1.02 ± 0.016 | 1.03 ± 0.017 | 1.01 ± 0.025 | 1.05 ± 0.041 | 1.03 ± 0.04 | 1.03 ± 0.033 | 0.999 ± 0.023 | 1.01 ± 0.049 | 0.989 ± 0.042 | 1.03 ± 0.044 | 1.02 ± 0.026 | 1.03 ± 0.021 | 0.979 ± 0.01 | 1 ± 0.0049 | 0.998 ± 0.014
16 | PCI30 HEADNECK | 0.872 ± 0.024 | 0.74 ± 0.04 | 0.98 ± 0.05 | 1 ± 0.073 | 0.991 ± 0.065 | 1.01 ± 0.026 | 0.964 ± 0.013 | 0.895 ± 0.049 | 0.958 ± 0.054 | 0.951 ± 0.062 | 1.07 ± 0.044 | 0.991 ± 0.083 | 1.05 ± 0.067 | 1.02 ± 0.072 | 1.07 ± 0.093 | 1.18 ± 0.1
17 | RDES SOFT TISSUE | 1.24 ± 0.11 | 1.2 ± 0.16 | 1.33 ± 0.071 | 1.27 ± 0.024 | 1.26 ± 0.12 | 1.19 ± 0.13 | 1.22 ± 0.13 | 1.39 ± 0.12 | 1.16 ± 0.061 | 1.22 ± 0.13 | 1.04 ± 0.13 | 1.05 ± 0.12 | 0.953 ± 0.017 | 0.871 ± 0.056 | 0.987 ± 0.075 | 1.01 ± 0.13
18 | S68 BREAST | 1.1 ± 0.39 | 0.683 ± 0.17 | 0.816 ± 0.16 | 0.974 ± 0.13 | 1.35 ± 0.11 | 0.945 ± 0.054 | 0.823 ± 0.016 | 0.817 ± 0.11 | 1.01 ± 0.3 | 1.06 ± 0.074 | 1.04 ± 0.15 | 1.53 ± 0.22 | 0.832 ± 0.079 | 0.909 ± 0.13 | 0.891 ± 0.12 | 1.08 ± 0.26
19 | SAOS2 BONE | 1 ± 0.061 | 0.97 ± 0.011 | 1.06 ± 0.12 | 0.96 ± 0.031 | 1.12 ± 0.02 | 1.05 ± 0.069 | 1.05 ± 0.072 | 1.04 ± 0.091 | 1.11 ± 0.024 | 1.06 ± 0.082 | 1.14 ± 0.054 | 1.12 ± 0.023 | 0.9 ± 0.069 | 0.836 ± 0.066 | 0.831 ± 0.079 | 0.839 ± 0.14
20 | SCC003 HEADNECK | 0.92 ± 0.15 | 0.937 ± 0.047 | 1.02 ± 0.095 | 0.968 ± 0.015 | 1.11 ± 0.099 | 1.12 ± 0.12 | 0.917 ± 0.12 | 0.928 ± 0.045 | 1.06 ± 0.027 | 1.01 ± 0.12 | 1.1 ± 0.026 | 1.04 ± 0.061 | 1.08 ± 0.13 | 0.949 ± 0.081 | 0.998 ± 0.14 | 1.04 ± 0.099
21 | SCC36 HEADNECK | 0.87 ± 0.045 | 1.07 ± 0.1 | 1.12 ± 0.077 | 1.11 ± 0.044 | 1.12 ± 0.073 | 1.04 ± 0.032 | 1.07 ± 0.093 | 0.962 ± 0.057 | 1.03 ± 0.063 | 0.903 ± 0.069 | 1.03 ± 0.068 | 1.027 ± 0.0046 | 0.843 ± 0.039 | 0.77 ± 0.033 | 0.838 ± 0.033 | 0.77 ± 0.048
